Reference: publication doi:10.1101/2025.10.17.681057v1 (biorxiv, 2025)

Key:
[1] = target: T1, human CYP2J2 (Homo sapiens, UniProt P51589); experiment: P450 spectral binding titration
T1 sequence (P51589 1-502): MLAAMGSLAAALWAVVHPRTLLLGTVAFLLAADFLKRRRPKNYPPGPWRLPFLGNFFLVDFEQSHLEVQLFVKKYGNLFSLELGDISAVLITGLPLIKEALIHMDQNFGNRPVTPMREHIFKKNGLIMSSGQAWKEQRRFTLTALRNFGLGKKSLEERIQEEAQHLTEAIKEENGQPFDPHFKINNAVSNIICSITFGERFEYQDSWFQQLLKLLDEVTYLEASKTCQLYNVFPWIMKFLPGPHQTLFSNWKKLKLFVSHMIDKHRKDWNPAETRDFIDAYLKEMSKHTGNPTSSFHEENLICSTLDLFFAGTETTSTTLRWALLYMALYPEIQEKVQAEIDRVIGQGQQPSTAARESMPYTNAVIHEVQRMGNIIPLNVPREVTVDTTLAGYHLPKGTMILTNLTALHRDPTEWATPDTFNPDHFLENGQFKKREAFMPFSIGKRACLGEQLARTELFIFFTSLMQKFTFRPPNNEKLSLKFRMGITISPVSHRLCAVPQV

[2] = target: T2, Fatty Acid Amide Hydrolase (FAAH) (Homo sapiens, UniProt O00519); experiment: fluorescence assay of AMC release from anandamide-AMC, 4-parameter logistic fit; assay type: biochemical
T2 sequence (O00519 1-579): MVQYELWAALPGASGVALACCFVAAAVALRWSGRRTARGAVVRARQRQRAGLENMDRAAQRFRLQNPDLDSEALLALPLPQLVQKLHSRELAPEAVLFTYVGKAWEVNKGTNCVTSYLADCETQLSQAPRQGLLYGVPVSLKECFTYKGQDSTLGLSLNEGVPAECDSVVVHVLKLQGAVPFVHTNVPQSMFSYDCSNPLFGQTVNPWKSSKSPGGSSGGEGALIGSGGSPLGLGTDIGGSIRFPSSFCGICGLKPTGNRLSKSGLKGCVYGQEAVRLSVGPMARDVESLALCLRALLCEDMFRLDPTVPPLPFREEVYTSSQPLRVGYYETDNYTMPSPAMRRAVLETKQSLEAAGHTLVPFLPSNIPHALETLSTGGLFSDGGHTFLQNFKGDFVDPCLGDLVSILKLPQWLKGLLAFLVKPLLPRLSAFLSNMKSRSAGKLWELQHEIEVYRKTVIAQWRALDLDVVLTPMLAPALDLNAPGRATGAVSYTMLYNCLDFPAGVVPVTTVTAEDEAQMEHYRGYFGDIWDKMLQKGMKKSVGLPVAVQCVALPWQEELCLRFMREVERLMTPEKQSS

[3] = target: CYP3A4 (Homo sapiens, UniProt P08684); experiment: P450 spectral binding titration
Sequence of CYP3A4 (P08684 2-503): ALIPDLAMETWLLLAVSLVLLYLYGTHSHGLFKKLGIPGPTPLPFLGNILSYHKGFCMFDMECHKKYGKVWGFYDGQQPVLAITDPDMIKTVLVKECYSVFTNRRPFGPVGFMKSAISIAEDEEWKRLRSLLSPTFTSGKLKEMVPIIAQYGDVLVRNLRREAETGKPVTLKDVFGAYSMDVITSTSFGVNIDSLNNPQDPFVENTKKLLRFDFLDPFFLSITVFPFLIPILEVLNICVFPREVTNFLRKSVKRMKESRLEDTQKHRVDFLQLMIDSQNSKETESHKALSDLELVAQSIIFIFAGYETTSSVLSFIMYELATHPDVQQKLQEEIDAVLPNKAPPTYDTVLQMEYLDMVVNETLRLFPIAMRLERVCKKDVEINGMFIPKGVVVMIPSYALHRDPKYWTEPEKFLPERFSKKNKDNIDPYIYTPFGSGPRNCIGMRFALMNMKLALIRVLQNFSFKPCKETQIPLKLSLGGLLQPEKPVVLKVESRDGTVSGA

Kd [3]	SMILES	Kd [1]	IC50 [2]
	CCCCC/C=C\C/C=C\C/C=C\C/C=C\CCCC(=O)NCC(=O)O [NA-Gly]	3.3 ± 0.31 µM	14.2 ± 1.07 µM
20.3 ± 6.13 µM	CC/C=C\C/C=C\C/C=C\C/C=C\C/C=C\C/C=C\CCC(=O)NCC(=O)O [DHA-Gly]	2.47 ± 0.26 µM	35.3 ± 1.82 µM
